Measurements from patent publication US8455480B2, “Active agent combinations having insecticidal and acaricidal properties” (Bayer Cropscience AG, priority 2007, dated 2013).

How the values were obtained:
[1] = system: Phaedon cochleariae larvae; test: Phaedon cochleariae larvae test (sprayed cabbage leaves); settings: for Destruction in % after 2 d: single active substance
[2] = system: Myzus persicae; test: Myzus persicae test (spray on infested cabbage leaves); format: in vivo; settings: single active substance
[3] = Phaedon cochleariae, in Brassica oleracea, 144 h, read-out: Destruction in % after 6 d

C/C(=N\C#N)N(C)Cc1ccc(Cl)nc1 [Acetamiprid]
Destruction in % after 2 d ([1]; 4 g/ha): 0%
Destruction in % after 6 d ([2]; 0.032 g/ha): 0%

CN/C(=N\[N+](=O)[O-])NCc1cnc(Cl)s1 [Clothianidin]
pest or weed control at 4 g/ha [1, 3]: 33%
Destruction in % after 1 d ([2]; 0.16 g/ha): 0%
Destruction in % after 6 d ([2]; 0.16 g/ha): 10%

O=C1C=C(N(CCF)Cc2ccc(Cl)nc2)CO1 [Compound (I-4), 4-{[(6-chloropyrid-3-yl)methyl](2-fluoroethyl)amino}furan-2(5H)-one]
pest or weed control at 100 g/ha [1, 3]: 0%
Destruction in % after 1 d ([2]; 4 g/ha): 50%
Destruction in % after 6 d ([2]; 4 g/ha): 70%

O=C1C=C(N(Cc2ccc(Cl)nc2)CC(F)F)CO1 [Compound (I-5), 4-{[(6-chloropyrid-3-yl)methyl](2,2-difluoroethyl)amino}furan-2(5H)-one]
pest or weed control at 20 g/ha [1, 3]: 0%
pest or weed control at 100 g/ha [1, 3]: 50%
Destruction in % after 2 d ([1]; 100 g/ha): 33%
Destruction in % after 6 d ([2]; 0.8 g/ha): 30%

CN(Cc1cnc(Cl)c(F)c1)C1=CC(=O)OC1 [Compound (I-6), 4-{[(6-chloro-5-fluoropyrid-3-yl)methyl](methyl)amino}furan-2(5H)-one]
pest or weed control at 100 g/ha [1, 3]: 0%
Destruction in % after 2 d ([1]; 100 g/ha): 0%

CN/C(=N\[N+](=O)[O-])NCC1CCOC1 (stereo not drawn) [Dinotefuran]
pest or weed control at 4 g/ha [1, 3]: 0%

O=[N+]([O-])/N=C1\NCCN1Cc1ccc(Cl)nc1 [Imidacloprid]
pest or weed control at 4 g/ha [1, 3]: 0%
Destruction in % after 1 d ([2]; 0.16 g/ha): 20%

N#C/N=C1\SCCN1Cc1ccc(Cl)nc1 [Thiacloprid]
pest or weed control at 4 g/ha [1, 3]: 17%
Destruction in % after 2 d ([1]; 4 g/ha): 0%
Destruction in % after 1 d ([2]; 0.16 g/ha): 20%
Destruction in % after 6 d ([2]; 0.16 g/ha): 0%

CN1COCN(Cc2cnc(Cl)s2)/C1=N/[N+](=O)[O-] [Thiamethoxam]
pest or weed control at 4 g/ha [1, 3]: 17%
Destruction in % after 6 d ([2]; 0.032 g/ha): 0%
Destruction in % after 6 d ([2]; 0.16 g/ha): 30%
